The record followed here is publication PMC3202339 (2011).

The test deals with TRPV1 (Mus musculus, UniProt Q704Y3). The test is described as follows: whole-cell patch clamp, inhibition of capsaicin. The test is classed as cell-based.
Chain of TRPV1 (Q704Y3 whole entry): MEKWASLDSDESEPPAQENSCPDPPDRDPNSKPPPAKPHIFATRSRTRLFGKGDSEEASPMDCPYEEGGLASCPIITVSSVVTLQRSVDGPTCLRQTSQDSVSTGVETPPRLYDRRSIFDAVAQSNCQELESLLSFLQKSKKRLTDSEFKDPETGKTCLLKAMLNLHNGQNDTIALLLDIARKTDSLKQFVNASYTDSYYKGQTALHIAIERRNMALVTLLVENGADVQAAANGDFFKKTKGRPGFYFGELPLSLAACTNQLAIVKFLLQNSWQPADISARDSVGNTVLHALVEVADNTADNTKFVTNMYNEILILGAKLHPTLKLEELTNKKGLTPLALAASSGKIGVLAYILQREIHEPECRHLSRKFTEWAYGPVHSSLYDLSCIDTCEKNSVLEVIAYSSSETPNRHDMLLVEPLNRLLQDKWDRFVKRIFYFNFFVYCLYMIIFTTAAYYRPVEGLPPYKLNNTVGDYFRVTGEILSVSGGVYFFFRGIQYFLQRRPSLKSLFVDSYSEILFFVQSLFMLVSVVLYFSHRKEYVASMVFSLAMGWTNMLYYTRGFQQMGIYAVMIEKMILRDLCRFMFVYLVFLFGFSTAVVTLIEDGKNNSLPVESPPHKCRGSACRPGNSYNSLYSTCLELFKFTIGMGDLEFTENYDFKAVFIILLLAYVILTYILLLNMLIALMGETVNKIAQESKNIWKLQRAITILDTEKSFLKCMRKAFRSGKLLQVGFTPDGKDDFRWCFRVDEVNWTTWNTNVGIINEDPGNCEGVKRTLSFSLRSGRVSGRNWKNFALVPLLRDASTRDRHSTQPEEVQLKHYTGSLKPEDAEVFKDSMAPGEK

Consider `CC(C)(C)c1ccc(/C=C/C(=O)Nc2ccc3c(c2)OCCO3)cc1` [AMG9810], for which the IC50 was determined as 163 nM.
